Source: patent US12098145B2 (Libra Therapeutics, Inc., priority 2022, dated 2024)

The molecules below were run against T1, TRPML1 (Homo sapiens, UniProt Q9GZU1) (assay: Cellular TRPML1 assay (FLIPR, GCaMP6f calcium read-out)). Conditions: HEKT-REx/GCaMP6f/TRPML1 cells, FLIPR TETRA, kinetic response over 300 seconds.
T1 construct: expressed in transfected cells; host or cells: HEK T-REx cells stably expressing GCaMP6f and TRPML1
Format: cell-based
Procedure: Example A: Cellular TRPML1 Assay
The final clone for the TRPML1 assay is HEKT-REx/GCaMP6f/TRPML1. GCaMP6f is a genetically encoded calcium indicator that is stably expressed in this cell line and used as a fluorescent read-out.
Experiments were performed in 384 MTP format. Cells are seeded at 15000 cells/well in 20 μl/well of Optimem+0.5% FBS without selection antibiotics. Twenty-four hours later, cells are assayed for the response to various compounds using the Ca^2+ sensitive GCaMP6f protein stably expressed in the cells as readout.
The experiment was performed in a 384-well format according to the following procedures: • 24 h after seeding, the cells were pre-incubated at room temperature for about 10 min. • Started the experiment at the FLIPR^TETRA by injecting 10 μL/w of 3× concentrated test compounds and controls in Ca^2+ free Tyrode's buffer. Monitored the kinetic response over a period of 300 seconds. • Final DMSO concentration: 0.5%
Data from FLIPR^TETRA measurements were analyzed with the Genedata Screener© software.

T1 sequence (Q9GZU1 whole entry): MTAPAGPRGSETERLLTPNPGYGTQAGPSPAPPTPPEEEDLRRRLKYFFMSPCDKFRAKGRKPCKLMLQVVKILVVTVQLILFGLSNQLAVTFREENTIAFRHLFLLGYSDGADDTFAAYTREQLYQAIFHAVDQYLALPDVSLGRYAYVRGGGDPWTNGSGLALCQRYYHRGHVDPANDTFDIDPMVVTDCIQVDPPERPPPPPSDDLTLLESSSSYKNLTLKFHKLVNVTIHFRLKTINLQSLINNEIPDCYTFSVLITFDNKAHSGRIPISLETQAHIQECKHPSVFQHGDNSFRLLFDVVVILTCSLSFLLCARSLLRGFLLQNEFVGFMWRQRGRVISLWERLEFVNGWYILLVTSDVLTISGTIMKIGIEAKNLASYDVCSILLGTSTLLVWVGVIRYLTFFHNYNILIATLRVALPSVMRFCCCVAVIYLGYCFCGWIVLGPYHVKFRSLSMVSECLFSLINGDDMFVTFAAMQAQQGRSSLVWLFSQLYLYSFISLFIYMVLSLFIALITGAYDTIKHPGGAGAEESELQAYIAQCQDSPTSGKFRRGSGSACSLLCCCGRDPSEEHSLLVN

Row | TRPML1 FLIPR pEC50 | Compound
1 | C (C = 5.0-4.0) | Cc1oc(N2CCC(F)(F)C2)nc1C(=O)Nc1ccc(N2CCCCC2)c(F)c1 [Example 121, 2-(3,3-difluoropyrrolidin-1-yl)-N-(3-fluoro-4-(piperidin-1-yl)phenyl)-5-methyloxazole-4-carboxamide]

Same assay, conditions: HEKT-REx/GCaMP6f/TRPML1 cells, FLIPR TETRA, kinetic response over 300 seconds; read-out: TRPML1 FLIPR pEC50 (converted)

Row | EC50 | Compound
2 | 1 to 10 µM | COC1(C)CN(c2nc(C(=O)Nc3cc(F)c4c(c3)CCN4C3CC4CC4C3)c(CC(F)(F)F)o2)C1 (stereo not drawn) [Example 312, N-(1-(bicyclo[3.1.0]hexan-3-yl)-7-fluoroindolin-5-yl)-2-(3-methoxy-3-methylazetidin-1-yl)-5-(2,2,2-trifluoroethyl)oxazole-4-carboxamide]
3 | 1 to 10 µM | O=C(Nc1ccc(OCCC(F)(F)F)c(F)c1)c1nc(N2CCCC2)oc1CC(F)(F)F [Example 58, N-(3-fluoro-4-(3,3,3-trifluoropropoxy)phenyl)-2-(pyrrolidin-1-yl)-5-(2,2,2-trifluoroethyl)oxazole-4-carboxamide]
4 | 0.01 to 1 µM | O=C(Nc1cc(F)c(OC2CC3C[C@H]3C2)c(F)c1)c1nc(N2CC3(C2)CC(F)(F)C3)oc1CC(F)(F)F (stereo partly drawn) [Example 34, N-(4-(cis-bicyclo[3.1.0]hexan-3-yloxy)-3,5-difluorophenyl)-2-(6,6-difluoro-2-azaspiro[3.3]heptan-2-yl)-5-(2,2,2-trifluoroethyl)oxazole-4-carboxamide]
5 | 10 to 100 µM | Cc1oc(N2CCC(CN3CCC(F)(F)CC3)C2)nc1C(=O)Nc1ccc(N2CCCCC2)c(F)c1 (stereo not drawn) [Example 107, 2-(3-((4,4-difluoropiperidin-1-yl)methyl)pyrrolidin-1-yl)-N-(3-fluoro-4-(piperidin-1-yl)phenyl)-5-methyloxazole-4-carboxamide]
6 | 10 to 100 µM | Cc1oc(N2CCCCC2)nc1C(=O)Nc1ccc(N2CCCCC2)c(F)c1 [Example 114, N-(3-fluoro-4-(piperidin-1-yl)phenyl)-5-methyl-2-(piperidin-1-yl)oxazole-4-carboxamide]
7 | 1 to 10 µM | Cc1oc(N2CCCC2C)nc1C(=O)Nc1ccc(N2CCCCC2)c(F)c1 (stereo not drawn) [Example 119, N-(3-fluoro-4-(piperidin-1-yl)phenyl)-5-methyl-2-(2-methylpyrrolidin-1-yl)oxazole-4-carboxamide]
8 | 1 to 10 µM | CCC1(CC)CN(c2nc(C(=O)Nc3cc(C)c(NC4CC5CC(C5)C4)c(F)c3)c(CC(F)(F)F)o2)C1 (stereo not drawn) [Example 192, N-(4-(bicyclo[3.1.1]heptan-3-ylamino)-3-fluoro-5-methylphenyl)-2-(3,3-diethylazetidin-1-yl)-5-(2,2,2-trifluoroethyl)oxazole-4-carboxamide]
9 | 1 to 10 µM | CC1(C)CC(Oc2ccc(NC(=O)c3nc(N4CCCC4)oc3CC(F)(F)F)cc2F)CO1 (stereo not drawn) [Example 45, N-{4-[(5,5-dimethyloxolan-3-yl)oxy]-3-fluorophenyl}-2-(pyrrolidin-1-yl)-5-(2,2,2-trifluoroethyl)oxazole-4-carboxamide]
10 | 1 to 10 µM | CCC1(CC)CN(c2nc(C(=O)Nc3cc(F)c(OC4CCCC5(CCC5)C4)c(F)c3)c(CC(F)(F)F)o2)C1 (stereo not drawn) [Example 134, 2-(3,3-diethylazetidin-1-yl)-N-(3,5-difluoro-4-(spiro[3.5]nonan-6-yloxy)phenyl)-5-(2,2,2-trifluoroethyl)oxazole-4-carboxamide]
11 | 1 to 10 µM | CCC1(CC)CN(c2nc(C(=O)Nc3ccc(O[C@@H]4C[C@@H]5C[C@@H]5C4)c(O)c3)c(CC(F)(F)F)o2)C1 [Example 270, N-(4-(cis-bicyclo[3.1.0]hexan-3-yloxy)-3-hydroxyphenyl)-2-(3,3-diethylazetidin-1-yl)-5-(2,2,2-trifluoroethyl)oxazole-4-carboxamide]
12 | 0.01 to 1 µM | O=C(Nc1cc(F)c(N2CCC3CCCC32)c(F)c1)c1nc(N2CCCC2)oc1CC(F)(F)F (stereo not drawn) [Example 214, N-(3,5-difluoro-4-(hexahydrocyclopenta[b]pyrrol-1(2H)-yl)phenyl)-2-(pyrrolidin-1-yl)-5-(2,2,2-trifluoroethyl)oxazole-4-carboxamide]
13 | 1 to 10 µM | COCc1oc(N2CC3(C2)CC(F)(F)C3)nc1C(=O)Nc1ccc(N2CCCCC2)c(F)c1 [Example 104, 2-{6,6-difluoro-2-azaspiro[3.3]heptan-2-yl}-N-[3-fluoro-4-(piperidin-1-yl)phenyl]-5-(methoxymethyl)oxazole-4-carboxamide]
14 | 10 to 100 µM | COCc1oc(N2CCCC2)nc1C(=O)Nc1ccc(OC2CCCC2)c(F)c1 [Example 101, N-[4-(cyclopentyloxy)-3-fluorophenyl]-5-(methoxymethyl)-2-(pyrrolidin-1-yl)oxazole-4-carboxamide]
15 | 0.01 to 1 µM | CCC1(OC)CN(c2nc(C(=O)Nc3cc(F)c(O[C@@H]4C[C@@H]5C[C@@H]5C4)c(F)c3)c(CC(F)(F)F)o2)C1 [Example 167, N-(4-(cis-bicyclo[3.1.0]hexan-3-yloxy)-3,5-difluorophenyl)-2-(3-ethyl-3-methoxyazetidin-1-yl)-5-(2,2,2-trifluoroethyl)oxazole-4-carboxamide]
16 | 1 to 10 µM | CC(C)OCc1oc(N2CCCC2)nc1C(=O)Nc1ccc(OC2CCCC2(F)F)c(F)c1 (stereo not drawn) [Example 109]
17 | 10 to 100 µM | Cc1oc(N(C)C(C)C)nc1C(=O)Nc1ccc(N2CCCCC2)c(F)c1 [Example 115, N-(3-fluoro-4-(piperidin-1-yl)phenyl)-2-(isopropyl(methyl)amino)-5-methyloxazole-4-carboxamide]
18 | 1 to 10 µM | O=C(Nc1ccc(OC2CCCC2(F)F)c(F)c1)c1nc(N2CCc3ccccc32)oc1CC(F)(F)F (stereo not drawn) [Example 5, N-(4-((2,2-difluorocyclopentyl)oxy)-3-fluorophenyl)-2-(indolin-1-yl)-5-(2,2,2-trifluoroethyl)oxazole-4-carboxamide]
19 | 1 to 10 µM | O=C(Nc1ccc(OC2CCCC2(F)F)c(F)c1)c1nc(N2CC3(CCOCC3)C2)oc1CC(F)(F)F (stereo not drawn) [Example 14, N-(4-((2,2-difluorocyclopentyl)oxy)-3-fluorophenyl)-2-(7-oxa-2-azaspiro[3.5]nonan-2-yl)-5-(2,2,2-trifluoroethyl)oxazole-4-carboxamide]
20 | 0.01 to 1 µM | CCC1(CC)CN(c2nc(C(=O)Nc3ccc(OC4CCCOC4)c(F)c3)c(CC(F)(F)F)o2)C1 (stereo not drawn) [Example 158, 2-(3,3-diethylazetidin-1-yl)-N-(3-fluoro-4-((tetrahydro-2H-pyran-3-yl)oxy)phenyl)-5-(2,2,2-trifluoroethyl)oxazole-4-carboxamide]
21 | 1 to 10 µM | CN(c1ccc(NC(=O)c2nc(N3CC4(C3)CC(F)(F)C4)oc2CC(F)(F)F)cc1F)C1CCCC1 [Example 79, N-{4-[cyclopentyl(methyl)amino]-3-fluorophenyl}-2-{6,6-difluoro-2-azaspiro[3.3]heptan-2-yl}-5-(2,2,2-trifluoroethyl)oxazole-4-carboxamide]
22 | 0.01 to 1 µM | CCC1(OC)CN(c2nc(C(=O)Nc3cc(F)c(OC4CCCOC4)c(F)c3)c(CC(F)(F)F)o2)C1 (stereo not drawn) [Example 160, N-(3,5-difluoro-4-((tetrahydro-2H-pyran-3-yl)oxy)phenyl)-2-(3-ethyl-3-methoxyazetidin-1-yl)-5-(2,2,2-trifluoroethyl)oxazole-4-carboxamide]
23 | 10 to 100 µM | Cc1oc(N(C)C)nc1C(=O)Nc1ccc(N2CCCCC2)c(F)c1 [Example 117, 2-(dimethylamino)-N-(3-fluoro-4-(piperidin-1-yl)phenyl)-5-methyloxazole-4-carboxamide]

Row | Compound | EC50
24 | CCC(C)Oc1ccc(NC(=O)c2nc(N3CCCC3)oc2CC(F)(F)F)cc1F (stereo not drawn) [Example 59, N-(4-(sec-butoxy)-3-fluorophenyl)-2-(pyrrolidin-1-yl)-5-(2,2,2-trifluoroethyl)oxazole-4-carboxamide] | 1 to 10 µM
